Test results as given in US7094429B2, “Process for preparing tannate liquid and semi-solid dosage forms” (Kiel Laboratories, Inc., priority 2001, dated 2006).

Key:
[1] = Conversion process: active dissolved in supernatant of centrifuged MAS/tannic acid conversion samples; conditions: for Assay (% Dissolved) 10 mins / Assay (% Dissolved) 20 mins / Assay (% Dissolved) 30 mins: in-situ tannate conversion, centrifuged at 6500 rpm; for Assay (% Dissolved) 10 mins: supernatant after 10 min mixing; for Assay (% Dissolved) 20 mins: supernatant after 20 min mixing; for Assay (% Dissolved) 30 mins: supernatant after 30 min mixing
Protocol: The active solution of carbetapentane citrate is prepared by dissolving 24.4 g of carbetapentane citrate into 60 ml of water. 530 ml of purified water is placed in a mixing tank and 53.7 g of MAS is added in small portions while mixing the water to form a dispersion. Once the dispersion is uniform and lump-free, 46.7 g of tannic acid (TA), (three times that of the free base of the active), is folded into the dispersion using a planetary mixer with a sweep blade. […] The salt solution is then added in small portions, while continuing to stir the MAS/tannic acid dispersion using the planetary mixer. After all of the salt solution is added, the weight is made up to 800 g with purified water. Mixing is continued and 5 g samples of the conversion after ten, twenty and thirty minutes of mixing are taken in a centrifuge tube. The samples are subsequently centrifuged at 6500 rpm and the resulting supernatant solution is assayed for the presence of active. At the end of thirty minutes, a 10 g sample of the conversion is taken for assay of the actives.

[2] = cited from earlier work

Assay (% Dissolved) 10 mins [1] | Assay (% Dissolved) 20 mins [1] | Assay (% Dissolved) 30 mins [1] | amount of active ingredient present in solution at the ten, twenty and thirty minute mixing times ([1]; in-situ tannate conversion in MAS/tannic acid dispersion) | SMILES | soluble in water [2]
0.08% | 0.08% | 0.09% | – | CCN(CC)CCOCCOC(=O)C1(c2ccccc2)CCCC1 [Carbetapentane] | –
0.12% | 0.13% | 0.14% | – | CN(C)CCC(c1ccc(Cl)cc1)c1ccccn1 (centres unmarked) [Chlorpheniramine] | –
– | – | – | more than 47.0% | CNC[C@H](O)c1cccc(O)c1.Cl [Phenylephrine HCI] | about 100.0%
37.14% | 47.6% | 47.6% | – | CNC[C@H](O)c1cccc(O)c1 [Phenylephrine] | –
0.10% | 0.10% | 0.11% | – | COc1ccc(CN(CCN(C)C)c2ccccn2)cc1 [Pyrilamine] | –
